ChEMBL document CHEMBL1201862, “PubChem BioAssay data set” (2004)
Active and inactive are the calls of the source.

How the values were obtained:
[1] = biological target: T1, Mannose-6-phosphate isomerase (Homo sapiens, UniProt P34949); experiment: human PMI inhibitors, high substrate, primary screen, biochemical, fluorescence intensity, high mannose 6-phosphate (AID 1220)
T1 sequence (P34949 whole entry): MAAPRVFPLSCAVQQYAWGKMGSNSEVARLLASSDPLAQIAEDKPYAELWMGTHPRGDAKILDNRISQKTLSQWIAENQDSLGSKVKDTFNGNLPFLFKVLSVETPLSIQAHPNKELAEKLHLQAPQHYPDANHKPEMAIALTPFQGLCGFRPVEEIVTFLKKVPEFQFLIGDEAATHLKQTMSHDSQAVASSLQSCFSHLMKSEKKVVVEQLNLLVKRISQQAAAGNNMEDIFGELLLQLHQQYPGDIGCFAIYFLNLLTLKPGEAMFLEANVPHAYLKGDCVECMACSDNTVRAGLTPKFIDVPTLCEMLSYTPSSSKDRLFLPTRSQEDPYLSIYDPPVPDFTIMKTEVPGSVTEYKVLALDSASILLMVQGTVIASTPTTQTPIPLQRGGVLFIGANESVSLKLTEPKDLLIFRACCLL

[2] = cytotoxicity in HEK-293T NF-kB-Luc cells, dose response, cytotoxicity control for B/T-cell NF-kB inhibitor project, cell-based, uHTS hits (AID 489019); assay type: functional;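 also: IC50 reflects cytotoxicity as loss of cell viability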
[3] = biological target: T2, Rac GTPase-activating protein 1 (Homo sapiens, UniProt Q9H0H5); experiment: MgcRacGAP GTPase-activating activity inhibitors, confirmation, biochemical, ADP Hunter fluorescence, primary and confirmatory (AID 624330); assay type: functional
T2 sequence (Q9H0H5 whole entry): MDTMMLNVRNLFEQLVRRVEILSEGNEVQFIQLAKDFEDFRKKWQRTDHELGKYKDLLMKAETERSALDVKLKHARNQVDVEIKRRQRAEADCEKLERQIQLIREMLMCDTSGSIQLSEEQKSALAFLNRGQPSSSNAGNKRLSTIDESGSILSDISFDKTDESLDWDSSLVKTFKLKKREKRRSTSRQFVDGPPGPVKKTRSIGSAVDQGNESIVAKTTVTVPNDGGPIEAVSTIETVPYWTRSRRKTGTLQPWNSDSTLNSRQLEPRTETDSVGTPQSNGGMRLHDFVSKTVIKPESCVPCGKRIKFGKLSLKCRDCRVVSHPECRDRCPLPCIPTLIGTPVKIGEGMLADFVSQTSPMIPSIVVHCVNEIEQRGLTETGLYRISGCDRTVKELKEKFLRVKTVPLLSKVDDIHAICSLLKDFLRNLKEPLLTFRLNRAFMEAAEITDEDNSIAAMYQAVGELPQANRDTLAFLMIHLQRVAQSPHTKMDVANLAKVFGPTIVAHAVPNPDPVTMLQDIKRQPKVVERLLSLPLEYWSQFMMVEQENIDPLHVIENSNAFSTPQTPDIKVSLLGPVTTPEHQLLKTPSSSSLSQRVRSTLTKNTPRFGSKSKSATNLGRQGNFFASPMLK

[4] = system: HEK293; experiment: optical interference in Abeta FP readout, dose response, artefact control for IDE activator project, biochemical, fluorescence polarization (AID 588442); assay type: functional, cell-based; details: Homo sapiens
[5] = biological target: T3, Apoptotic protease-activating factor 1 (Homo sapiens, UniProt O14727); assay type: functional
T3 sequence (O14727 whole entry): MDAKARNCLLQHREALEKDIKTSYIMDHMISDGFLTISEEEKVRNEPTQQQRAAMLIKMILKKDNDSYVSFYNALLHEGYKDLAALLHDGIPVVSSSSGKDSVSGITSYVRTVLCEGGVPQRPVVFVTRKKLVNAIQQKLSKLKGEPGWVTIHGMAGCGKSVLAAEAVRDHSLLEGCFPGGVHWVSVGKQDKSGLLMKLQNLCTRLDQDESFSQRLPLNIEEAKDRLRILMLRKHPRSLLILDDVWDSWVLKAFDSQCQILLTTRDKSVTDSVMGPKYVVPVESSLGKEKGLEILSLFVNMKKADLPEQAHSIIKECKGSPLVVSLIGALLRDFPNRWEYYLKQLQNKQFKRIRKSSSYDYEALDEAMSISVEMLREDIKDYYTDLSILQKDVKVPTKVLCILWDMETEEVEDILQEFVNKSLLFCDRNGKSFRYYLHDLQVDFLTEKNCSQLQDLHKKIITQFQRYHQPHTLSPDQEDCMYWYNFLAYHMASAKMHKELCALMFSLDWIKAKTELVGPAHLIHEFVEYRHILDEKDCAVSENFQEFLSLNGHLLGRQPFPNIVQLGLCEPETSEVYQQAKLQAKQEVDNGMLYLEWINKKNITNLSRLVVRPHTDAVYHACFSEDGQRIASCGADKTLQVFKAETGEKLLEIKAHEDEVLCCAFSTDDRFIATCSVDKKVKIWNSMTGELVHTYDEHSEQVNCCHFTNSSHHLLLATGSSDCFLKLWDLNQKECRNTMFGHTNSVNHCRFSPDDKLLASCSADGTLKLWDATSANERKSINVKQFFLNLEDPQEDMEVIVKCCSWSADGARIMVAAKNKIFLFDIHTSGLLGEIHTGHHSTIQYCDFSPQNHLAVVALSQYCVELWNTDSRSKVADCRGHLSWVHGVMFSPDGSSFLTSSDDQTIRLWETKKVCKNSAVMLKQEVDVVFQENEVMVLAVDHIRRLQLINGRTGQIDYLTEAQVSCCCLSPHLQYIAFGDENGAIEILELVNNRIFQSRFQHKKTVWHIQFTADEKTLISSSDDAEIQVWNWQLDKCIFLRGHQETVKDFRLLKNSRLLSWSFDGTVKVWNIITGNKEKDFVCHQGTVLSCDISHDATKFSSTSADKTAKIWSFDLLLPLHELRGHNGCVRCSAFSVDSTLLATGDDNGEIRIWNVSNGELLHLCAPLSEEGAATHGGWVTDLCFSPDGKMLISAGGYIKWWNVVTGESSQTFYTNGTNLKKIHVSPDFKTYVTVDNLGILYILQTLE

[6] = biological target: Proto-oncogene tyrosine-protein kinase ROS (Homo sapiens, UniProt P08922); assay type: functional;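 also: ROS1 tested as one member of a kinome-wide kinase panel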
[7] = biological target: Mitogen-activated protein kinase 14 (Homo sapiens, UniProt Q16539); assay type: functional;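 also: part of a kinome-wide panel, MAPK14 entry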
[8] = biological target: STE20-like serine/threonine-protein kinase (Homo sapiens, UniProt Q9H2G2); assay type: functional
[9] = biological target: Protein kinase C iota type (Homo sapiens, UniProt P41743); assay type: functional;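 also: measured within a kinome-wide kinase panel, PRKCI as panel member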
[10] = biological target: Leukocyte tyrosine kinase receptor (Homo sapiens, UniProt P29376); experiment: Navigating the Kinome. Panel member name: LTK; assay type: functional
[11] = biological target: Serine/threonine-protein kinase MRCK alpha (Homo sapiens, UniProt Q5VT25); assay type: functional
[12] = biological target: Protein kinase C gamma type (Homo sapiens, UniProt P05129); assay type: functional
[13] = biological target: ALK tyrosine kinase receptor (Homo sapiens, UniProt Q9UM73); assay type: functional;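 also: ALK tested as one member of a kinase panel screen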
ALK tyrosine kinase receptor, sequence (Q9UM73 whole entry): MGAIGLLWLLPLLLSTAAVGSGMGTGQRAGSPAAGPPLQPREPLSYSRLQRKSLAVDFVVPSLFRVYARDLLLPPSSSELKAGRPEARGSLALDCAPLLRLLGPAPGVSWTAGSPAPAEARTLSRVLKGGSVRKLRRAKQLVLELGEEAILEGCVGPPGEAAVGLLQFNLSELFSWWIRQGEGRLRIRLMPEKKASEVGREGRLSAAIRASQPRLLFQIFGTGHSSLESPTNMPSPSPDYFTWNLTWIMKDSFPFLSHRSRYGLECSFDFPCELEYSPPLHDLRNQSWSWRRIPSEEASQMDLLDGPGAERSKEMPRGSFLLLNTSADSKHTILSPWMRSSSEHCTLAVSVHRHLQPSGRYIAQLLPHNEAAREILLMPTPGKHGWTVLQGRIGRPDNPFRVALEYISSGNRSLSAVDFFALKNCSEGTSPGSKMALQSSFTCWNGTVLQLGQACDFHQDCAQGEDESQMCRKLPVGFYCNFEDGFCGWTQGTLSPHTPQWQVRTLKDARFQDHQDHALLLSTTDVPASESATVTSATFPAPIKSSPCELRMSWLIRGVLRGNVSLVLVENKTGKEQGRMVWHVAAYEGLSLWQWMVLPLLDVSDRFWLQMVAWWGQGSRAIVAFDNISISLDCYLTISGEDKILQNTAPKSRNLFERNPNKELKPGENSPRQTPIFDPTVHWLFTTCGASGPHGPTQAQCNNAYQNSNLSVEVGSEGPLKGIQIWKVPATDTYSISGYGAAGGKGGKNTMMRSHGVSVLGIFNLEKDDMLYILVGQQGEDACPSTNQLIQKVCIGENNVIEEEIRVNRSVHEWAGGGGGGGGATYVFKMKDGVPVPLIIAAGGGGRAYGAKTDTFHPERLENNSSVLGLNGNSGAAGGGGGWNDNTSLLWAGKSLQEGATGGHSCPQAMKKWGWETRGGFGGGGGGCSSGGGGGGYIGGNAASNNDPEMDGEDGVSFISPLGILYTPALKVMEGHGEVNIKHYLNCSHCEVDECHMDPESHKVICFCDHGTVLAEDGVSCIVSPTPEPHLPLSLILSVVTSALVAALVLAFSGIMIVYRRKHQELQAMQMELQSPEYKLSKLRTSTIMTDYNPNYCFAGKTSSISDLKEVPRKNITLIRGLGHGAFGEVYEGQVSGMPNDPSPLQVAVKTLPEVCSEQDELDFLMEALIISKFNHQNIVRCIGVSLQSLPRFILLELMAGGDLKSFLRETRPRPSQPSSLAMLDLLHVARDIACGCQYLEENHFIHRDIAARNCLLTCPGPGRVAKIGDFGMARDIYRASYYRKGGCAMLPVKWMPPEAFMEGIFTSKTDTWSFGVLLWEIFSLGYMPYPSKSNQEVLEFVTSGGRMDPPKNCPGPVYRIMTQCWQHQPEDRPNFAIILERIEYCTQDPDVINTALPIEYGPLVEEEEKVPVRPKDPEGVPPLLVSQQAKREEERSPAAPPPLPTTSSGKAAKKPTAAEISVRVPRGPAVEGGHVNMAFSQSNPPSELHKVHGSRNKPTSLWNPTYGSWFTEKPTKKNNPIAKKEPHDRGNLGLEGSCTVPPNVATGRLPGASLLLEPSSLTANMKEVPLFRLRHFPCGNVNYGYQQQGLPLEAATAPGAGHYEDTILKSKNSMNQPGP

STE20-like serine/threonine-protein kinase, sequence (Q9H2G2 whole entry): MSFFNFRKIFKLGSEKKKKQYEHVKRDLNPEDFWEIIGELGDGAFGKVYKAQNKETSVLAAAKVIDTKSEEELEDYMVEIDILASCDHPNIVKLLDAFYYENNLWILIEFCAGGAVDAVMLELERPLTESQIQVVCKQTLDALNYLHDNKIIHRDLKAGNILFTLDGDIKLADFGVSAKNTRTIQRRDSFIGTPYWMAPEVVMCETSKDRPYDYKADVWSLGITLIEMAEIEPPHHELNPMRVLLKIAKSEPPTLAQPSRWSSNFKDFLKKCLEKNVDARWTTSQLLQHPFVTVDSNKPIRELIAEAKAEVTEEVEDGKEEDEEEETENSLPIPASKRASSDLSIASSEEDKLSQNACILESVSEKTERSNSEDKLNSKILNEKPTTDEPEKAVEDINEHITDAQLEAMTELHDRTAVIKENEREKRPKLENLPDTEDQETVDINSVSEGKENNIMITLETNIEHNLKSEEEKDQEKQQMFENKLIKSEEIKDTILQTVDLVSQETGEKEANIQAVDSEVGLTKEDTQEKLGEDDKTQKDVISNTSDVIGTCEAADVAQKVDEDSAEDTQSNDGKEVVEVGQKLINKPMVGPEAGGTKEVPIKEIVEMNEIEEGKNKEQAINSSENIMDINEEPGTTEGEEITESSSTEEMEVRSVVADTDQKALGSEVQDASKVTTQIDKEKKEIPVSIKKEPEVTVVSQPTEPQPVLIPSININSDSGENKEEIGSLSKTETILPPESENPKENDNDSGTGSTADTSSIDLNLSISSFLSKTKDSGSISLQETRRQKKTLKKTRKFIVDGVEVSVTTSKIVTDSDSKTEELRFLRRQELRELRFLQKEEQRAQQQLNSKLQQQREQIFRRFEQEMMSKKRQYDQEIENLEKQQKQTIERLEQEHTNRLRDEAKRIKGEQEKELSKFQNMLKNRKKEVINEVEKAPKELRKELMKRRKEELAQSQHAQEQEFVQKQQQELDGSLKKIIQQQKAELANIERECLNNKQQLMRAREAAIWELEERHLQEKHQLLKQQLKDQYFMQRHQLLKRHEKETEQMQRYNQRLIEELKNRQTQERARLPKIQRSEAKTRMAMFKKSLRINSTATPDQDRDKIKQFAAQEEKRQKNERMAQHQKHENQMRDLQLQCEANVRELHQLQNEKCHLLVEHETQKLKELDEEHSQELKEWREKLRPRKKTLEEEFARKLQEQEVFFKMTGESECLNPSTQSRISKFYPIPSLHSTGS
Protein kinase C iota type, sequence (P41743 whole entry): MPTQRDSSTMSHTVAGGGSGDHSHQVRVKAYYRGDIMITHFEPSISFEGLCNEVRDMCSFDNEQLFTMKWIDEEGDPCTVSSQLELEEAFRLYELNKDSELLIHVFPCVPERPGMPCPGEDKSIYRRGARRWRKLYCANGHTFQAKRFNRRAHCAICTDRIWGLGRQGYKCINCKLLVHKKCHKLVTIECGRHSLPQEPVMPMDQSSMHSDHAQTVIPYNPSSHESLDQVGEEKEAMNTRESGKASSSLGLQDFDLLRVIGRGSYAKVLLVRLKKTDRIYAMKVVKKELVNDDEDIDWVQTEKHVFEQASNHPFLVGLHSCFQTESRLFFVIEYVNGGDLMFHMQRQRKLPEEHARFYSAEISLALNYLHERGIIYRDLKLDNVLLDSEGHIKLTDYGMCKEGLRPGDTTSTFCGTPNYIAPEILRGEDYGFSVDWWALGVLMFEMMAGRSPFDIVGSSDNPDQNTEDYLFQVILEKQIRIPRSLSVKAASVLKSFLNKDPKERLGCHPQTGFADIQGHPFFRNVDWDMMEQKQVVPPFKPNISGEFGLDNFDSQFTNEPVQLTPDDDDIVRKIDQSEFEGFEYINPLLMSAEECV
Mitogen-activated protein kinase 14, sequence (Q16539 whole entry): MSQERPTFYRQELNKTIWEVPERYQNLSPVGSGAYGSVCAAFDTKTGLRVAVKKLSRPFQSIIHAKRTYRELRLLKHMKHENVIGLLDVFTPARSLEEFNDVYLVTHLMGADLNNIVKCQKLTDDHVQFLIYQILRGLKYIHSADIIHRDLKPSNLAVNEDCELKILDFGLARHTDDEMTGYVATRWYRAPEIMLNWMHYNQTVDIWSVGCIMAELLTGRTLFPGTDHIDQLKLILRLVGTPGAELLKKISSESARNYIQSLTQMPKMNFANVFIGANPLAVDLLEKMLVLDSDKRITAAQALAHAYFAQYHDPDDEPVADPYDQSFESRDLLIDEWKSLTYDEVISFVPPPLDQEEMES

**Q.** With `CCC(C)n1c(NC(=O)c2ccccc2)c(C#N)c2nc3ccccc3nc21` (stereo not drawn) as the compound, how does the IC50 [1] read?
**A.** > 50 µM (not active)

**Q.** With `CCN1/C(=C\c2ccc3ccccc3[n+]2CC)Sc2cc(C)ccc21` as the compound, how does the IC50 [2] read?
**A.** > 80 µM (inactive)

**Q.** What about the IC50 [3] of the same compound?
**A.** 81.3 µM (active)

**Q.** With `CCCCCCCCCCOC(=O)C[n+]1c(COc2ccc(C)cc2)n(C)c2ccccc21` as the compound, how does the EC50 [4] read?
**A.** > 55.9 µM (inactive)

**Q.** What about the IC50 [5] of the same compound?
**A.** 10.8 µM (active)

**Q.** For `CN1CCN(c2nc(C3=C(c4c[nH]c5ccccc45)C(=O)NC3=O)c3ccccc3n2)CC1` [SOTRASTAURIN], which Ki [6] is on record?
**A.** > 2 µM (inactive)

**Q.** And the Ki [7]?
**A.** > 3.98 µM (inactive)

**Q.** What about the Ki [8] of the same compound?
**A.** 0.126 µM (active)

**Q.** What about the Ki [9] of the same compound?
**A.** 0.398 µM (active)

**Q.** And the Ki [10]?
**A.** 2.51 µM (active)

**Q.** What about the Ki [11] of the same compound?
**A.** > 10 µM (inactive)

**Q.** What about the Ki [12] of the same compound?
**A.** 0.0126 µM (active)

**Q.** And the Ki [13]?
**A.** > 1.58 µM (inactive)
